From patent US9956157B2, “Composition containing fucosterol for skin whitening or moisturizing” (INDUSTRY-ACADEMIC COOPERATION FOUNDATION, YONSEI UNIVERSITY, priority 2014, dated 2018)

Key:
Format in all cases: cell-based
[1] = tested on: B16F10 melanoma cells; assay: Melanin generation in α-MSH-stimulated B16F10 melanoma cells (absorbance 405 nm); conditions: 200 nM α-MSH, fucosterol 5, 10, 20 μM, 72 hrs, P<0.01, FIG. 2
Experimental: B16F10 melanoma cells were incubated in a DMEM medium including 10% fetal bovine serum and then added in a 6-well plate with 2.5×10^5 cell/mL (the final volume of 3 mL). After being incubated for 24 hrs, the medium was removed and fucosterol which was dissolved in the DMEM medium including 200 nM α-MSH was treated at 5, 10, and 20 μM concentrations, respectively. After 72 hrs, the incubated medium was removed from the 6-well plate and 0.25% trypsin-ethylenediaminetetraacetate (trypsin-EDTA) solution was treated to collect a cell pellet, and the cell pellet was transferred to a 1.5 mL tube and centrifuged for 10 min at 10,000 rpm to remove a supernatant. […] This solution was diluted with phosphate buffered saline (PBS) and then the melanin content in a sample treatment group was calculated by measuring absorbance at 405 nm by an ELISA reader (Versa max, Sunnyvale, Calif., USA). In this case, cells without the fucosterol were set to a control group and the melanin generation degree was measured in the control group and cells treated with the fucosterol. According to Equation 1 below, the melanin content compared with the control group was calculated and the result was illustrated in FIG. 2. Melanin content (%) compared with control group=absorbance of each test material/absorbance of control group×100 [Equation 1]

[2] = tested on: B16F10 melanoma cells; assay: Microscopic observation of melanin generation in α-MSH-stimulated B16F10 melanoma cells; conditions: 200 nM α-MSH, fucosterol 5 and 20 μM, 72 hrs, FIG. 3
Experimental: B16F10 melanoma cells were incubated in a DMEM medium including 10% fetal bovine serum and then added in a 6-well plate with 2.5×10^5 cell/mL (the final volume of 3 mL). After being incubated for 24 hrs, the medium was removed and fucosterol which was dissolved in the DMEM medium including 200 nM α-MSH was treated at 5 and 20 μM of concentrations, respectively. After 72 hrs, the incubated medium was removed from the 6-well plate and the B16F10 melanoma cells were photographed by using a microscope (Olympus IX71 Model), and the result was illustrated in FIG. 3.

[3] = tested on: tyrosinase; assay: Tyrosinase protein expression (western blot) in B16F10 melanoma cells; conditions: 200 nM α-MSH, fucosterol 5 and 20 μM, 24 hrs, FIG. 5
Experimental: B16F10 melanoma cells were incubated in a DMEM medium including 10% fetal bovine serum and then added in a 6-well plate with 2.5×10^5 cell/mL (the final volume of 3 mL). After being incubated for 24 hrs, the medium was removed and fucosterol which was dissolved in the DMEM medium including 200 nM α-MSH was treated at 5 and 20 μM of concentrations, respectively. The cells after 24 hrs were lysed with a NP40 buffer solution including proteinase inhibitor cocktail and the protein amount extracted from the cells was quantified by using a Bio-Rad protein assay dye (Bradford) reagent. The quantified protein was boiled for 5 min and isolated by electrophoresis with 10% SDS-PAGE to transfer the isolated proteins to a nitrocellular membrane. A primary antibody of tyrosinase was diluted in 2.5% bovine serum albumin at a ratio of 1:1000 and reacted with the protein transferred to the nitrocellular membrane for 20 hrs at room temperature. The primary antibody was reacted and the nitrocellular membrane was washed by using tris-buffer saline tween 20 (TBST) three times for 10 min. […] As the measured result, the protein expression of tyrosinase was verified and the loading amount of the protein was constant by α-tubulin.

[4] = tested on: TRP-2 (tyrosinase-related protein 2); assay: TRP-2 protein expression (western blot) in B16F10 melanoma cells; conditions: 200 nM α-MSH, fucosterol 5 and 20 μM, 24 hrs, FIG. 6
Experimental: B16F10 melanoma cells were incubated in a DMEM medium including 10% fetal bovine serum and then added in a 6-well plate with 2.5×10^5 cell/mL (the final volume of 3 mL). After being incubated for 24 hrs, the medium was removed and fucosterol which was dissolved in the DMEM medium including 200 nM α-MSH was treated at 5 and 20 μM of concentrations, respectively. The cells after 24 hrs were lysed with a NP40 buffer solution including proteinase inhibitor cocktail and the protein amount extracted from the cells was quantified by using a Bradford reagent. The quantified protein was boiled for 5 min and isolated by electrophoresis with 10% SDS-PAGE to transfer the isolated proteins to a nitrocellular membrane. A primary antibody of […] and […] was diluted in 2.5% bovine serum albumin at a ratio of 1:1000 and reacted with the protein transferred to the nitrocellular membrane for 20 hrs at room temperature. The primary antibody was reacted and then the nitrocellular membrane was washed three times by using the TBST for 10 min. […] As the measured result, the protein expression of […] and […] was verified and it was shown that the loading amount of the protein was constant by α-tubulin.

C/C=C(\CC[C@@H](C)[C@H]1CC[C@H]2[C@@H]3CC=C4C[C@@H](O)CC[C@]4(C)[C@H]3CC[C@]12C)C(C)C [fucosterol]
inhibitory effect on melanin generation [1]: very excellent inhibitory effect | melanin generation, microscopic observation [2]: largely inhibited | protein expression of tyrosinase [3]: reduced | protein expression of TRP-2 [4]: reduced
